Reference: patent US20080132544A1, “Peroxisome Proliferator-Activated Receptor Ligand” (KANEKA CORPORATION, priority 2004, published 2008)

Key:
rats = experiment: Toxicity test on coumaperine, oral administration; type: in vivo; settings: 2000 mg/kg of body weight
Protocol: A toxicity test was conducted on the coumaperine of the present invention.
Coumaperine was orally administered at 2000 mg/kg of body weight to rats. […] Thus, the coumaperine was confirmed to have no or exceedingly low toxicity.

[1] = molecular target: T1, mouse PPARγ ligand-binding site (GAL4 chimeric protein, pM-mPPARγ) (Mus musculus, UniProt P37238); experiment: PPARγ ligand activity (GAL4-PPARγ chimera luciferase reporter assay in CV-1 cells); type: cell-based; settings: for PPARγ ligand activity: specific activity relative to untreated control (DMSO = 1.00), CV-1 cells, 24 h
T1 construct: expressed in transfected cells; host or cells: CV-1 cells (African green monkey kidney)
T1 sequence (P37238 174-475 isoform P37238-2): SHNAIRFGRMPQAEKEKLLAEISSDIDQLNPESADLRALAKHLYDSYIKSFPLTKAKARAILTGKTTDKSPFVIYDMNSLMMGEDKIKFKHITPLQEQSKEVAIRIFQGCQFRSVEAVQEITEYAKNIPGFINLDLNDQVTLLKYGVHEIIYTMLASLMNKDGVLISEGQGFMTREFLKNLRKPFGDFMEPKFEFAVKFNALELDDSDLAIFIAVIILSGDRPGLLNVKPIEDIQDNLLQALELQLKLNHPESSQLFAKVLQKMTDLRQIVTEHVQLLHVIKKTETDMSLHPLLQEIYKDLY
Protocol: CV-1 cells (cultured cells derived from male African green monkey kidney) were seeded at 6×10^3 cells/well into a 96-well culture plate and cultured at 37° C. for 24 hours under 5% CO2 conditions. The medium used was DMEM (Dulbecco's Modified Eagle Medium; GIBCO) containing 10% FBS (fetal bovine serum), 10 ml/L penicillin/streptomycin solution (5000 IU/ml and 5000 μg/ml, respectively; GIBCO), and 37 mg/L ascorbic acid (Wako Pure Chemical Industries, Ltd.). The cells were washed with OPTI-MEM (GIBCO) and then transfected with pM-mPPARγ and 4×UASg-luc by use of Lipofectamine plus (GIBCO). […] The 4×UASg-luc is a reporter plasmid in which four copies of the upstream activating sequence of GAL4 (UASg) are incorporated upstream of a luciferase gene. Approximately 24 hours after transfection, the medium was replaced with a sample-containing medium (n=4), followed by culture for additional 24 hours. The sample dissolved in dimethyl sulfoxide (DMSO) or DMSO used as an untreated control was added at 1/1000 of the volume to the medium. The cells were washed with Ca- and Mg-containing phosphate-buffered saline (PBS+). Then, Luclite (Packard) was added thereto, and the luminescence intensity of luciferase was measured with a TopCount microplate scintillation/luminescence counter (Packard).
pM (plasmid from which PPARγ ligand-binding site gene was removed) was used as a control group instead of the pM-mPPARγ and subjected to measurement in the same way as for the measurement group. The ratio (measurement group/control group) of the average luminescence intensity values (n=4) between the measurement and control groups was calculated for each sample. Specific activity relative to the untreated control was used as the PPARγ ligand activity of the sample.

O=C(/C=C/C=C/c1ccc(O)cc1)N1CCCCC1 [Coumaperine, N-5-(4-hydroxyphenyl)-2E,4E-pentadienoyl piperidine]
death cases (rats): no death case was observed
toxic conditions (rats): toxic conditions were not particularly observed
PPARγ ligand activity, concentration dependence (in words) ([1]; 0.5 to 50 μg/ml, Table 1): concentration-dependent PPARγ ligand activity
PPARγ ligand activity ([1]; concentration added 0.5 μg/ml): 1.05
PPARγ ligand activity ([1]; concentration added 1 μg/ml): 1.07
PPARγ ligand activity ([1]; concentration added 2 μg/ml): 1.24
PPARγ ligand activity ([1]; concentration added 5 μg/ml): 1.78
PPARγ ligand activity ([1]; concentration added 10 μg/ml): 2.07
PPARγ ligand activity ([1]; concentration added 20 μg/ml): 2.53
PPARγ ligand activity ([1]; concentration added 30 μg/ml): 2.38
PPARγ ligand activity ([1]; concentration added 50 μg/ml): 2.44
